Here are results for 1 compound from PMC12443593, “A live bacteria enzyme assay for identification of human disease mutations and drug screening” (Nature Biomedical Engineering, 2025).

The target of the assay is T1, human G6PD (glucose-6-phosphate dehydrogenase) (Homo sapiens, UniProt P11413).
T1 construct: functional as dimer or tetramer
Put plainly: growth rate of humanized E. coli (LEICA), Hill fit. It counts as cell-based. Particulars: live E. coli Δpgi Δzwf expressing human G6PD, M9 glucose, 37 °C, 1% DMSO; growth read-out, no effect on E. coli Δpgi.

T1 sequence (P11413 2-515): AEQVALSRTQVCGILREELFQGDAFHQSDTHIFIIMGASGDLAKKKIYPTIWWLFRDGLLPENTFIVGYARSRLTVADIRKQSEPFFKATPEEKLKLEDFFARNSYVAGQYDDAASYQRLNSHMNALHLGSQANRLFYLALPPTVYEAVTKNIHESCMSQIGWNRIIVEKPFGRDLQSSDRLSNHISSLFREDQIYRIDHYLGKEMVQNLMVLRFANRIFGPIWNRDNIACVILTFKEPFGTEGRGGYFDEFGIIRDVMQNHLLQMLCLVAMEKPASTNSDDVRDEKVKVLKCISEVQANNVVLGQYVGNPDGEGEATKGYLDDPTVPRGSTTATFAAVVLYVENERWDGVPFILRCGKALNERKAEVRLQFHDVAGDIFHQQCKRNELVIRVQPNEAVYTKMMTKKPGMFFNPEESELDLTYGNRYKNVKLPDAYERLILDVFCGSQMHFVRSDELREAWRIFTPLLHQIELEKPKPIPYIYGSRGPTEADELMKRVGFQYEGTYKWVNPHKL

For `N#Cc1cc(Nc2ncc3c(n2)CCCCC3=O)cs1` [G6PDi-1], the IC50 (in general, the concentration at which inhibition is half-maximal) was determined as 111 µM.
